Results taken from PMC9458065, “Discovery of Quinacrine as a Potent Topo II and Hsp90 Dual-Target Inhibitor, Repurposing for Cancer Therapy” (Molecules, 2022).
Counter-ions that a name gives are not always drawn.

Experiments:
[1] = molecular target: T1, hTopo IIα ATPase (Homo sapiens, UniProt P11388); assay: malachite green ATPase assay; format: biochemical; conditions: 100 µM; […] ATP, […] MgCl2, pH […] °C, […] min; relative inhibition rate, not absolute inhibition
T1 construct: gene TOP2A; ATPase region, residues 29-428 (400 residues), N-terminal 6xHis, pET28a, E. coli BL21 (DE3)
Source text: malachite green ATPase assay on hTopo IIα ATPase

[2] = system: HL60 (HL−60 human leukemia cell); assay: cells; design: MTT cell proliferation assay, OD 570 nm, IC50 from triplicate dose-response; conditions: MTT, 48 h
Description: The cell proliferation assay was evaluated using the MTT assay as described by Mosmann, with modifications. Cells were seeded into 96−well plates (5 × 10^3 cells/well) and exposed to various concentrations of compounds. After 48 h of treatment, 20 μL of 2.5 mg/mL MTT reagent was added to each well, and the cells were further incubated for 4 h at 37 ℃. The cells in each well were then treated with 100 μL of dimethyl sulfoxide (DMSO), and the optical density (OD) was recorded at 570 nm using a microplate reader (Bio−Tek). All experiments were performed in parallel three times, and the IC50 values were derived from the mean OD values of triplicate tests versus the drug concentration curves. […] HL−60 human leukemia cell is sensitive to Topo II inhibitors, which are commonly used to evaluate the inhibitory effect of Topo II inhibitors on proliferation.

[3] = molecular target: T2, human Topo IIα (Homo sapiens, UniProt P11388); assay: pBR322 DNA relaxation, agarose gel; format: biochemical
T2 construct: gene TOP2A; full-length enzyme of a commercial relaxation kit (Inspiralis)

[4] = molecular target: T3, Hsp90α (Homo sapiens, UniProt P07900); assay: malachite green ATPase assay; format: biochemical; conditions: read-out: % inhibition at 100 μM
T3 construct: gene HSP90AA1

[5] = molecular target: T4, Hsp90α N−ATPase (9−236) (Homo sapiens, UniProt P07900); assay: fluorescence polarization displacement of GM-FITC
T4 construct: gene HSP90AA1

T1 sequence (P11388 29-428): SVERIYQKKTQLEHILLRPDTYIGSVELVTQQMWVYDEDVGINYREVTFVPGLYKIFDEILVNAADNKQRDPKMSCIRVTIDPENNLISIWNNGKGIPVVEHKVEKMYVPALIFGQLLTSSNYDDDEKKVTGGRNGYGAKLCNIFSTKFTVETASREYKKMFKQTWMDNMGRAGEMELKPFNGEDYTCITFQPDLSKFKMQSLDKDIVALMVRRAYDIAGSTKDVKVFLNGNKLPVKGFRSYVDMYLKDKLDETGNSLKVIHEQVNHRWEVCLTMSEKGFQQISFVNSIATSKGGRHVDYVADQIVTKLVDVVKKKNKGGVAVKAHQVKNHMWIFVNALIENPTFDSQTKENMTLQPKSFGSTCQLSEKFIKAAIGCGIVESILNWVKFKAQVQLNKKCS
T2 sequence (P11388 whole entry): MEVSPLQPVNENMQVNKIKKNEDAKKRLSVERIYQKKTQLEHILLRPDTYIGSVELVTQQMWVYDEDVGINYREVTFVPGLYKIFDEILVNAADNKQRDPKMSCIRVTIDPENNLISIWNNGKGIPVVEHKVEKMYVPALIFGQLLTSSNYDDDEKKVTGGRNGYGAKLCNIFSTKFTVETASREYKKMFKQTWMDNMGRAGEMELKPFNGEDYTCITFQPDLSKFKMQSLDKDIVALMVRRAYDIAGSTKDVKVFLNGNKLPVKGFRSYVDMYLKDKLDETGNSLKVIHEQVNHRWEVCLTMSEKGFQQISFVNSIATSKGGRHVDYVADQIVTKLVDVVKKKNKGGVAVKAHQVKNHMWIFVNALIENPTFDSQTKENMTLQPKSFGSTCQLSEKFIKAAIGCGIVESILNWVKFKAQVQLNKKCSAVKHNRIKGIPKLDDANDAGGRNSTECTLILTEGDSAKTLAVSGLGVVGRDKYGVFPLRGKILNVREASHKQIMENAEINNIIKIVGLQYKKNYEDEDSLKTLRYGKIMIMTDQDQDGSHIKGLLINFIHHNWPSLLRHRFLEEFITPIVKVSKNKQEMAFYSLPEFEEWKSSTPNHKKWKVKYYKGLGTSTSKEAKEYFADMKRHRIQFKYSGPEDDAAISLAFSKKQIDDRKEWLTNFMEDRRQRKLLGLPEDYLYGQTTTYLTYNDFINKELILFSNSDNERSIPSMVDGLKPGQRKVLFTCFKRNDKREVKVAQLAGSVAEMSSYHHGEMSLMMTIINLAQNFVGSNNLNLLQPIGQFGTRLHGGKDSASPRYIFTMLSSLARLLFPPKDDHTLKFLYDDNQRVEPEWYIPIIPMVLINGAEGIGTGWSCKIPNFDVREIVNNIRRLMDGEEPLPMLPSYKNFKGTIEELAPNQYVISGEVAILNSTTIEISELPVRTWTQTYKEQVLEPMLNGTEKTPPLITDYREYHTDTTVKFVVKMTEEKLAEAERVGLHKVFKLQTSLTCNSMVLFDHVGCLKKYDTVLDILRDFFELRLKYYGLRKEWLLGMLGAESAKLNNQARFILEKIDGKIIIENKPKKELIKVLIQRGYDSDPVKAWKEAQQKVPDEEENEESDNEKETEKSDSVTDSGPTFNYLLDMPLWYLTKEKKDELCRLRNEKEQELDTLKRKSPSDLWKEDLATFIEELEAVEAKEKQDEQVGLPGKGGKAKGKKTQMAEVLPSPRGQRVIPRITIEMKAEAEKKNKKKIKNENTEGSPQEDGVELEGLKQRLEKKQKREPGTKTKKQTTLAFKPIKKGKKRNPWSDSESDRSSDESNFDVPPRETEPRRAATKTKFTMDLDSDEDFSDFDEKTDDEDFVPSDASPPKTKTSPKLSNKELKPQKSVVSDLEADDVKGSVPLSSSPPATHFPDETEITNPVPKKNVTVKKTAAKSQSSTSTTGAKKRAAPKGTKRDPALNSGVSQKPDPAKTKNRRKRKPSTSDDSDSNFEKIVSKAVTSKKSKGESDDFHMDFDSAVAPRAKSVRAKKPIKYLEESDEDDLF

| IC50 [2] [µM] | Structure (SMILES) | also measured |
| --- | --- | --- |
| 12.1 | Oc1cc(O)cc(/C=C/c2ccc(O)c(O)c2)c1 [K−C11, Piceatannol] | Topo II ATPase RIR (%) * [1]: 70.5% |
| > 25 | N=C(N)NC(=O)Cc1c(Cl)cccc1Cl [2−H11, Guanfacine HCl] | – |
| 22.9 | COc1ccc(C[C@@H]2c3cc(OC)c(OC)cc3CC[N@+]2(C)CCC(=O)OCCCCCOC(=O)CC[N@@+]2(C)CCc3cc(OC)c(OC)cc3[C@H]2Cc2ccc(OC)c(OC)c2)cc1OC [5−E11, Atracurium besylate] | – |
| 19 | N#C/C(=C\c1ccc(O)c(O)c1)C(=O)NCc1ccccc1 [K−D1, AG−490] | Topo II ATPase RIR (%) * [1]: 61.6% |
| 1.18 | Cn1cc(C2=C(c3cn(CCCSC(=N)N)c4ccccc34)C(=O)NC2=O)c2ccccc21 [K−D9, Ro 31−8220] | Topo II ATPase RIR (%) * [1]: 99.7% |
| 7.2 | O=C(c1ccc(OCCN2CCCCC2)cc1)c1c(-c2ccc(O)cc2)sc2cc(O)ccc12 [4−C3, Raloxifene HCl] | – |
| > 25 | N#CC(C#N)=C(N)/C(C#N)=C/c1cc(O)c(O)c(O)c1 [K−C3, Tyrphostin 51] | Topo II ATPase RIR (%) * [1]: 85.8% |
| 8.02 | CC(=O)Nc1ccc(CC(=O)O)cc1 [3−H6, Actarit] | – |
| 11.1 | CCCCCCCCCCCCC/C=C/[C@@H](O)[C@@H](N)CO [K−D10, Sphingosine] | Topo II ATPase RIR (%) * [1]: 94.3% |
| 19.7 | COc1cc2nc(N3CCN(C(=O)C4COc5ccccc5O4)CC3)nc(N)c2cc1OC (centres unmarked) [6−B10, Doxazosin mesylate] | – |
| > 25 | Nc1ccc(C(=O)O)c(O)c1 [5−E4, 4−aminosalicylic acid] | – |
| > 25 | CN[C@@H]1[C@H](O[C@H]2[C@H](O[C@H]3[C@H](O)[C@@H](O)[C@H](N=C(N)N)[C@@H](O)[C@@H]3N=C(N)N)O[C@@H](C)[C@]2(O)C=O)O[C@@H](CO)[C@H](O)[C@H]1O [7−H3, Streptomycin sulfate] | – |
| > 25 | COc1ncnc(NS(=O)(=O)c2ccc(N)cc2)c1OC [7−H4, Sulfadoxine] | – |
| > 25 | COc1cc2nc(N3CCN(C(=O)C4CCCO4)CC3)nc(N)c2cc1OC (centres unmarked) [7−H11, Terazosin HCl] | – |
| > 25 | COc1cc(NS(=O)(=O)c2ccc(N)cc2)nc(OC)n1 [7−H6, Sulfadimethoxine] | – |
| 5.22 | CCN(CC)CCCC(C)Nc1c2ccc(Cl)cc2nc2ccc(OC)cc12 (centres unmarked) [7−F2, quinacrine] | IC50 [3]: 6.18 µM; Topo II ATPase RIR (%) * [1]: 42.3%; inhibition at 100 µM [4]: ~70%; IC50 [5]: 13.6 µM |

| IC50 [2] [µM] | Structure (SMILES) | also measured |
| --- | --- | --- |
| 9.43 | O=C1C(O)=C([C@H]2CC[C@H](c3ccc(Cl)cc3)CC2)C(=O)c2ccccc21 [2−G7, Atovaquone] | – |
| 3.02 | O=c1c(-c2ccc(O)cc2)coc2cc(O)ccc12 [K−F12, Daidzein] | Topo II ATPase RIR (%) * [1]: 101.2% |
| > 25 | CC1(C)S[C@@H]2[C@H](NC(=O)[C@H](N)c3ccccc3)C(=O)N2[C@H]1C(=O)O [5−E6, Ampicillin trihydrate] | – |
| > 25 | CCCc1nc2c(C)cc(-c3nc4ccccc4n3C)cc2n1Cc1ccc(-c2ccccc2C(=O)O)cc1 [7−H9, Telmisartan] | Topo II ATPase RIR (%) * [1]: 79.4% |
| > 25 | N[C@@H](Cc1cc(I)c(Oc2cc(I)c(O)c(I)c2)c(I)c1)C(=O)O [8−H9, L−thyroxine] | – |
| > 25 | Nc1ccc(O)c(C(=O)O)c1 [5−E5, 5−aminosalicylic acid] | – |
| > 25 | CCOc1ccccc1OCCN[C@H](C)Cc1ccc(OC)c(S(N)(=O)=O)c1 [7−H8, Tamsulosin HCl] | – |
| – | CN[C@@H]1C[C@H]2O[C@@](C)([C@@H]1OC)n1c3ccccc3c3c4c(c5c6ccccc6n2c5c31)C(=O)NC4 [K−B6, Staurosporine] | Topo II ATPase RIR (%) * [1]: 111.2% |
| > 25 | O=C(O)c1cc(/N=N/c2ccc(S(=O)(=O)Nc3ccccn3)cc2)ccc1O [7−H7, Sulfasalazine] | – |
| > 25 | CN1C(C(=O)Nc2ccccn2)=C(O)c2sccc2S1(=O)=O [7−H10, Tenoxicam] | – |
| > 25 | Nc1ccc(S(=O)(=O)Nc2ncccn2)cc1 [7−H5, Sulfadiazine] | – |
| 0.75 | CO[C@@H]1[C@H](N(C)C(=O)c2ccccc2)C[C@H]2O[C@]1(C)n1c3ccccc3c3c4c(c5c6ccccc6n2c5c31)C(=O)NC4 [K−C10, PKC−412] | – |
| 9.51 | CN(C)CCCn1cc(C2=C(c3c[nH]c4ccccc34)C(=O)NC2=O)c2ccccc21 [K−D7, GF 109203X] | – |
| 0.17 | COc1cc([C@@H]2c3cc4c(cc3[C@@H](O[C@@H]3O[C@@H]5CO[C@@H](C)O[C@H]5[C@H](O)[C@H]3O)[C@H]3COC(=O)[C@H]23)OCO4)cc(OC)c1O [VP−16] | – |
| > 25 | CN1CCN(CCCN2c3ccccc3Sc3ccc(C(F)(F)F)cc32)CC1 [3−E6, Trifluoperazine 2HCl] | – |

| Structure (SMILES) | IC50 [2] [µM] | also measured |
| --- | --- | --- |
| CC[N+](CC)(CC)CCOc1cccc(OCC[N+](CC)(CC)CC)c1OCC[N+](CC)(CC)CC [3−C11, Gallamine triethiodide] | > 25 | – |
| COC[C@H]1OC(=O)c2coc3c2[C@@]1(C)C1=C(C3=O)[C@@H]2CCC(=O)[C@@]2(C)C[C@H]1OC(C)=O [K−D6, Wortmannin] | 13.3 | – |
| Cc1cc(O)c2c(=O)c3c(O)cc(O)c4c5c(O)cc(O)c6c(=O)c7c(O)cc(C)c8c1c2c(c34)c(c78)c65 [K−D8, Hypericin] | > 25 | – |
| N#C/C(=C\c1ccc(O)c(O)c1)C(N)=S [K−C2, Tyrphostin 47] | > 25 | Topo II ATPase RIR (%) * [1]: 90.3% |
